One block for each compound: values may come before it.
System: 171881-019-R-J1-PDC tumor spheroids, viability
Assay: Anticancer human tumor 171881-019-R-J1-PDC patient-derived invasive breast carcinoma cell line growth inhibition [GQUAD]
Details: spheroids with HUVEC and MSC; for IC50: curve of first compound; for viability, T/C: stronger effect = lower value
Procedure, shortened: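 Viability of tumor cells grown as complex spheroids with endothelial and stromal cells, exposed to drug combinations. Top concentration at or near clinical Cmax (else 10 microM), diluted in half-log increments.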

[1] = second compound 0.0316 µM, first compound 0.0316 µM
[2] = second compound 0.0316 µM, first compound 0.1 µM
[3] = second compound 0.0316 µM, first compound 0.316 µM
[4] = second compound 0.0316 µM, first compound 1 µM
[5] = second compound 0.0316 µM, first compound 3.16 µM
[6] = second compound 0.0316 µM, first compound 10 µM
[7] = second compound 0.1 µM, first compound 0.0316 µM
[8] = second compound 0.1 µM, first compound 0.1 µM
[9] = second compound 0.1 µM, first compound 0.316 µM
[10] = second compound 0.1 µM, first compound 1 µM
[11] = second compound 0.1 µM, first compound 3.16 µM
[12] = second compound 0.1 µM, first compound 10 µM
[13] = second compound 0.316 µM, first compound 0.0316 µM
[14] = second compound 0.316 µM, first compound 0.1 µM
[15] = second compound 0.316 µM, first compound 0.316 µM
[16] = second compound 0.316 µM, first compound 1 µM
[17] = second compound 0.316 µM, first compound 3.16 µM
[18] = second compound 0.316 µM, first compound 10 µM
[19] = second compound 1 µM, first compound 0.0316 µM
[20] = second compound 1 µM, first compound 0.1 µM
[21] = second compound 1 µM, first compound 0.316 µM
[22] = second compound 1 µM, first compound 1 µM
[23] = second compound 1 µM, first compound 3.16 µM
[24] = second compound 1 µM, first compound 10 µM
[25] = second compound 3.16 µM, first compound 0.0316 µM
[26] = second compound 3.16 µM, first compound 0.1 µM
[27] = second compound 3.16 µM, first compound 0.316 µM
[28] = second compound 3.16 µM, first compound 1 µM
[29] = second compound 3.16 µM, first compound 3.16 µM
[30] = second compound 3.16 µM, first compound 10 µM
[31] = second compound 10 µM, first compound 0.0316 µM
[32] = second compound 10 µM, first compound 0.1 µM
[33] = second compound 10 µM, first compound 0.316 µM
[34] = second compound 10 µM, first compound 1 µM
[35] = second compound 10 µM, first compound 3.16 µM
[36] = second compound 10 µM, first compound 10 µM
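Throughout, for viability, T/C: 100% = DMSO vehicle control viability.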

- IC50 (second compound 0.0316 µM): < 31.6 nM
- IC50 (second compound 0.1 µM): < 31.6 nM
- IC50 (second compound 0.316 µM): < 31.6 nM
- IC50 (second compound 1 µM): < 31.6 nM
- IC50 (second compound 3.16 µM): < 31.6 nM
- IC50 (second compound 10 µM): < 31.6 nM
Compound: CC1COCCN1c1cc(C2(O)CC3CCC(C2)O3)c2cnn(-c3ccn[nH]3)c2n1 (stereo not drawn) + Cc1cnc(CNC(=O)c2c(=O)c3ccc(N4CCCN(C)CC4)nc3n3c2sc2ccccc23)cn1
- viability, T/C [1]: 33.7%
- viability, T/C [2]: 16.5%
- viability, T/C [3]: 9.78%
- viability, T/C [4]: 5.45%
- viability, T/C [5]: 4.11%
- viability, T/C [6]: 2.67%
- viability, T/C [7]: 33.8%
- viability, T/C [8]: 17.1%
- viability, T/C [9]: 9.54%
- viability, T/C [10]: 5.51%
- viability, T/C [11]: 4.25%
- viability, T/C [12]: 3.04%
- viability, T/C [13]: 34.8%
- viability, T/C [14]: 21.1%
- viability, T/C [15]: 10.6%
- viability, T/C [16]: 5.81%
- viability, T/C [17]: 4.2%
- viability, T/C [18]: 3.15%
- viability, T/C [19]: 35.5%
- viability, T/C [20]: 22.2%
- viability, T/C [21]: 13.5%
- viability, T/C [22]: 6.47%
- viability, T/C [23]: 4.91%
- viability, T/C [24]: 2.51%
- viability, T/C [25]: 44.8%
- viability, T/C [26]: 27.9%
- viability, T/C [27]: 16.4%
- viability, T/C [28]: 6.87%
- viability, T/C [29]: 4.24%
- viability, T/C [30]: 0.23%
- viability, T/C [31]: 43.3%
- viability, T/C [32]: 31.1%
- viability, T/C [33]: 15.4%
- viability, T/C [34]: 7.69%
- viability, T/C [35]: 3.95%
- viability, T/C [36]: 0.2%

- IC50 (second compound 0.0316 µM): 1040 nM
- IC50 (second compound 0.1 µM): 1050 nM
- IC50 (second compound 0.316 µM): 755 nM
- IC50 (second compound 1 µM): 1120 nM
- IC50 (second compound 3.16 µM): 1040 nM
- IC50 (second compound 10 µM): 1110 nM
Compound: CC1COCCN1c1cc(C2(S(C)(=N)=O)CC2)nc(-c2ccnc3[nH]ccc23)n1 (stereo not drawn) + Cc1cnc(CNC(=O)c2c(=O)c3ccc(N4CCCN(C)CC4)nc3n3c2sc2ccccc23)cn1
- viability, T/C [1]: 93.8%
- viability, T/C [2]: 82.8%
- viability, T/C [3]: 90.7%
- viability, T/C [4]: 50.8%
- viability, T/C [5]: 15.5%
- viability, T/C [6]: 9.59%
- viability, T/C [7]: 87.5%
- viability, T/C [8]: 87.8%
- viability, T/C [9]: 74.1%
- viability, T/C [10]: 53.9%
- viability, T/C [11]: 18.7%
- viability, T/C [12]: 10.7%
- viability, T/C [13]: 74.9%
- viability, T/C [14]: 80.5%
- viability, T/C [15]: 63.5%
- viability, T/C [16]: 45.7%
- viability, T/C [17]: 21.7%
- viability, T/C [18]: 11.2%
- viability, T/C [19]: 67.6%
- viability, T/C [20]: 61.5%
- viability, T/C [21]: 68.7%
- viability, T/C [22]: 50.3%
- viability, T/C [23]: 28.7%
- viability, T/C [24]: 13.6%
- viability, T/C [25]: 61.9%
- viability, T/C [26]: 56.9%
- viability, T/C [27]: 58.7%
- viability, T/C [28]: 50.3%
- viability, T/C [29]: 35.1%
- viability, T/C [30]: 17.1%
- viability, T/C [31]: 57.5%
- viability, T/C [32]: 64.1%
- viability, T/C [33]: 57.2%
- viability, T/C [34]: 51.9%
- viability, T/C [35]: 33%
- viability, T/C [36]: 16.2%

- IC50 (second compound 0.0316 µM): 405 nM
- IC50 (second compound 0.1 µM): 268 nM
- IC50 (second compound 0.316 µM): 169 nM
- IC50 (second compound 1 µM): 169 nM
- IC50 (second compound 3.16 µM): 112 nM
- IC50 (second compound 10 µM): 103 nM
Compound: COc1ccc([C@@H](O)c2cc(-c3ncnc4cc(N5CCOCC5)ccc34)c(F)cc2Cl)nn1 + Cc1cnc(CNC(=O)c2c(=O)c3ccc(N4CCCN(C)CC4)nc3n3c2sc2ccccc23)cn1
- viability, T/C [1]: 93.2%
- viability, T/C [2]: 77.1%
- viability, T/C [3]: 60.5%
- viability, T/C [4]: 22.4%
- viability, T/C [5]: 9.13%
- viability, T/C [6]: 5.12%
- viability, T/C [7]: 75.6%
- viability, T/C [8]: 76%
- viability, T/C [9]: 43.7%
- viability, T/C [10]: 19.1%
- viability, T/C [11]: 8.81%
- viability, T/C [12]: 4.57%
- viability, T/C [13]: 73.1%
- viability, T/C [14]: 58%
- viability, T/C [15]: 40.5%
- viability, T/C [16]: 17%
- viability, T/C [17]: 9.34%
- viability, T/C [18]: 6.36%
- viability, T/C [19]: 64.9%
- viability, T/C [20]: 56.8%
- viability, T/C [21]: 41.8%
- viability, T/C [22]: 18%
- viability, T/C [23]: 10.8%
- viability, T/C [24]: 4.62%
- viability, T/C [25]: 60.7%
- viability, T/C [26]: 49.4%
- viability, T/C [27]: 39.4%
- viability, T/C [28]: 18.9%
- viability, T/C [29]: 11.2%
- viability, T/C [30]: 4.88%
- viability, T/C [31]: 53.8%
- viability, T/C [32]: 52.3%
- viability, T/C [33]: 37.8%
- viability, T/C [34]: 21.7%
- viability, T/C [35]: 11.8%
- viability, T/C [36]: 4.99%

- IC50 (second compound 0.0316 µM): > 10000 nM
- IC50 (second compound 0.1 µM): > 10000 nM
- IC50 (second compound 0.316 µM): > 10000 nM
- IC50 (second compound 1 µM): > 10000 nM
- IC50 (second compound 3.16 µM): > 10000 nM
- IC50 (second compound 10 µM): > 10000 nM
Compound: O=C(c1cc(Cc2n[nH]c(=O)c3ccccc23)ccc1F)N1CCN(C(=O)C2CC2)CC1 + Cc1cnc(CNC(=O)c2c(=O)c3ccc(N4CCCN(C)CC4)nc3n3c2sc2ccccc23)cn1
- viability, T/C [1]: 97.3%
- viability, T/C [2]: 93.3%
- viability, T/C [3]: 87%
- viability, T/C [4]: 87.1%
- viability, T/C [5]: 80.9%
- viability, T/C [6]: 75.1%
- viability, T/C [7]: 79.9%
- viability, T/C [8]: 82.7%
- viability, T/C [9]: 76.3%
- viability, T/C [10]: 68.4%
- viability, T/C [11]: 64.1%
- viability, T/C [12]: 62%
- viability, T/C [13]: 70.1%
- viability, T/C [14]: 69.8%
- viability, T/C [15]: 71.3%
- viability, T/C [16]: 65%
- viability, T/C [17]: 67.8%
- viability, T/C [18]: 58.2%
- viability, T/C [19]: 66.6%
- viability, T/C [20]: 61.5%
- viability, T/C [21]: 68.9%
- viability, T/C [22]: 58.6%
- viability, T/C [23]: 64.1%
- viability, T/C [24]: 57.8%
- viability, T/C [25]: 59.4%
- viability, T/C [26]: 55.4%
- viability, T/C [27]: 64.6%
- viability, T/C [28]: 56.5%
- viability, T/C [29]: 55.3%
- viability, T/C [30]: 55.7%
- viability, T/C [31]: 54.3%
- viability, T/C [32]: 60.4%
- viability, T/C [33]: 57.9%
- viability, T/C [34]: 55.5%
- viability, T/C [35]: 59.3%
- viability, T/C [36]: 55.4%

— PubChem BioAssay AID2060498 (Molecular Pharmacology Branch, DTP, NCI, 2025)
